Test: PN001/Part I: safety and tolerability
Format: in vivo, human
Excerpt: Safety was monitored throughout by adverse events, vital signs, and repeated clinical and laboratory evaluations. […] All adverse events were mild or moderate and severity and transient.

CC(C)c1ccc(CC(=O)N[C@H](C)c2ccc(OCC(F)(F)F)cn2)cc1 [CX-8998]
Abnormal physical sensation (1 mg): 0 n (%)
At least 1 adverse event (1 mg): 2 (33.3) n (%)
Dizziness (1 mg): 0 n (%)
Drowsiness (1 mg): 0 n (%)
Elevated mood (1 mg): 0 n (%)
Euphoric mood (1 mg): 0 n (%)
Eye Disorders (1 mg): 0 n (%)
Fatigue (1 mg): 0 n (%)
Feeling abnormal (1 mg): 0 n (%)
Floating feeling (1 mg): 0 n (%)
Gastro-intestinal Disorders (1 mg): 0 n (%)
Hangover effect (1 mg): 0 n (%)
Headache (1 mg): 2 (33.3) n (%)
Indifference (1 mg): 0 n (%)
Injury, Poisoning and Procedural Complications (1 mg): 0 n (%)
Insomnia (1 mg): 0 n (%)
Intoxication (1 mg): 0 n (%)
Irritability (1 mg): 0 n (%)
Lethargy (1 mg): 0 n (%)
Nervous System Disorders (1 mg): 2 (33.3) n (%)
Paraesthesia (1 mg): 0 n (%)
Paraesthesia oral (1 mg): 0 n (%)
Paraesthesia tongue (1 mg): 0 n (%)
Psychiatric Disorders (1 mg): 0 n (%)
Racing thoughts (1 mg): 0 n (%)
Relaxed (1 mg): 0 n (%)
Sensory disturbance (1 mg): 0 n (%)
Vision blurred (1 mg): 0 n (%)
Visual disturbance (1 mg): 0 n (%)
Vivid dreams (1 mg): 0 n (%)
Abnormal physical sensation (1 mg fed): 0 n (%)
At least 1 adverse event (1 mg fed): 0 n (%)
Dizziness (1 mg fed): 0 n (%)
Drowsiness (1 mg fed): 0 n (%)
Elevated mood (1 mg fed): 0 n (%)
Euphoric mood (1 mg fed): 0 n (%)
Eye Disorders (1 mg fed): 0 n (%)
Fatigue (1 mg fed): 0 n (%)
Feeling abnormal (1 mg fed): 0 n (%)
Floating feeling (1 mg fed): 0 n (%)
Gastro-intestinal Disorders (1 mg fed): 0 n (%)
Hangover effect (1 mg fed): 0 n (%)
Headache (1 mg fed): 0 n (%)
Indifference (1 mg fed): 0 n (%)
Injury, Poisoning and Procedural Complications (1 mg fed): 0 n (%)
Insomnia (1 mg fed): 0 n (%)
Intoxication (1 mg fed): 0 n (%)
Irritability (1 mg fed): 0 n (%)
Lethargy (1 mg fed): 0 n (%)
Nervous System Disorders (1 mg fed): 0 n (%)
Paraesthesia (1 mg fed): 0 n (%)
Paraesthesia oral (1 mg fed): 0 n (%)
Paraesthesia tongue (1 mg fed): 0 n (%)
Psychiatric Disorders (1 mg fed): 0 n (%)
Racing thoughts (1 mg fed): 0 n (%)
Relaxed (1 mg fed): 0 n (%)
Sensory disturbance (1 mg fed): 0 n (%)
Vision blurred (1 mg fed): 0 n (%)
Visual disturbance (1 mg fed): 0 n (%)
Vivid dreams (1 mg fed): 0 n (%)
Abnormal physical sensation (3 mg): 0 n (%)
At least 1 adverse event (3 mg): 3 (50.0) n (%)
Dizziness (3 mg): 0 n (%)
Drowsiness (3 mg): 0 n (%)
Elevated mood (3 mg): 0 n (%)
Euphoric mood (3 mg): 1 (16.7) n (%)
Eye Disorders (3 mg): 0 n (%)
Fatigue (3 mg): 0 n (%)
Feeling abnormal (3 mg): 0 n (%)
Floating feeling (3 mg): 0 n (%)
Gastro-intestinal Disorders (3 mg): 0 n (%)
Hangover effect (3 mg): 0 n (%)
Headache (3 mg): 0 n (%)
Indifference (3 mg): 0 n (%)
Injury, Poisoning and Procedural Complications (3 mg): 0 n (%)
Insomnia (3 mg): 0 n (%)
Intoxication (3 mg): 0 n (%)
Irritability (3 mg): 0 n (%)
Lethargy (3 mg): 0 n (%)
Nervous System Disorders (3 mg): 0 n (%)
Paraesthesia (3 mg): 0 n (%)
Paraesthesia oral (3 mg): 0 n (%)
Paraesthesia tongue (3 mg): 0 n (%)
Psychiatric Disorders (3 mg): 1 (16.7) n (%)
Racing thoughts (3 mg): 0 n (%)
Relaxed (3 mg): 0 n (%)
Sensory disturbance (3 mg): 0 n (%)
Vision blurred (3 mg): 0 n (%)
Visual disturbance (3 mg): 0 n (%)
Vivid dreams (3 mg): 0 n (%)
Abnormal physical sensation (4 mg): 0 n (%)
At least 1 adverse event (4 mg): 1 (16.7) n (%)
Dizziness (4 mg): 0 n (%)
Drowsiness (4 mg): 0 n (%)
Elevated mood (4 mg): 0 n (%)
Euphoric mood (4 mg): 0 n (%)
Eye Disorders (4 mg): 1 (16.7) n (%)
Fatigue (4 mg): 0 n (%)
Feeling abnormal (4 mg): 1 (16.7) n (%)
Floating feeling (4 mg): 0 n (%)
Gastro-intestinal Disorders (4 mg): 0 n (%)
Hangover effect (4 mg): 0 n (%)
Headache (4 mg): 0 n (%)
Indifference (4 mg): 0 n (%)
Injury, Poisoning and Procedural Complications (4 mg): 0 n (%)
Insomnia (4 mg): 0 n (%)
Intoxication (4 mg): 0 n (%)
Irritability (4 mg): 0 n (%)
Lethargy (4 mg): 0 n (%)
Nervous System Disorders (4 mg): 0 n (%)
Paraesthesia (4 mg): 0 n (%)
Paraesthesia oral (4 mg): 0 n (%)
Paraesthesia tongue (4 mg): 0 n (%)
Psychiatric Disorders (4 mg): 0 n (%)
Racing thoughts (4 mg): 0 n (%)
Relaxed (4 mg): 0 n (%)
Sensory disturbance (4 mg): 0 n (%)
Vision blurred (4 mg): 0 n (%)
Visual disturbance (4 mg): 1 (16.7) n (%)
Vivid dreams (4 mg): 0 n (%)
Abnormal physical sensation (8 mg): 0 n (%)
At least 1 adverse event (8 mg): 1 (16.7) n (%)
Dizziness (8 mg): 0 n (%)
Drowsiness (8 mg): 0 n (%)
Elevated mood (8 mg): 0 n (%)
Euphoric mood (8 mg): 0 n (%)
Eye Disorders (8 mg): 1 (16.7) n (%)
Fatigue (8 mg): 0 n (%)
Feeling abnormal (8 mg): 0 n (%)
Floating feeling (8 mg): 0 n (%)
Gastro-intestinal Disorders (8 mg): 1 (16.7) n (%)
Hangover effect (8 mg): 0 n (%)
Headache (8 mg): 0 n (%)
Indifference (8 mg): 0 n (%)
Injury, Poisoning and Procedural Complications (8 mg): 0 n (%)
Insomnia (8 mg): 0 n (%)
Intoxication (8 mg): 0 n (%)
Irritability (8 mg): 0 n (%)
Lethargy (8 mg): 0 n (%)
Nervous System Disorders (8 mg): 1 (16.7) n (%)
Paraesthesia (8 mg): 0 n (%)
Paraesthesia oral (8 mg): 1 (16.7) n (%)
Paraesthesia tongue (8 mg): 0 n (%)
Psychiatric Disorders (8 mg): 0 n (%)
Racing thoughts (8 mg): 0 n (%)
Relaxed (8 mg): 0 n (%)
Sensory disturbance (8 mg): 0 n (%)
Vision blurred (8 mg): 0 n (%)
Visual disturbance (8 mg): 1 (16.7) n (%)
Vivid dreams (8 mg): 0 n (%)
Abnormal physical sensation (8 mg evening): 1 (16.7) n (%)
At least 1 adverse event (8 mg evening): 5 (83.3) n (%)
Dizziness (8 mg evening): 0 n (%)
Drowsiness (8 mg evening): 1 (16.7) n (%)
Elevated mood (8 mg evening): 2 n (%)
Euphoric mood (8 mg evening): 2 n (%)
Eye Disorders (8 mg evening): 1 (16.7) n (%)
Fatigue (8 mg evening): 0 n (%)
Feeling abnormal (8 mg evening): 1 (16.7) n (%)
Floating feeling (8 mg evening): 0 n (%)
Gastro-intestinal Disorders (8 mg evening): 0 n (%)
Hangover effect (8 mg evening): 0 n (%)
Headache (8 mg evening): 1 (16.7) n (%)
Indifference (8 mg evening): 0 n (%)
Injury, Poisoning and Procedural Complications (8 mg evening): 0 n (%)
Insomnia (8 mg evening): 0 n (%)
Intoxication (8 mg evening): 0 n (%)
Irritability (8 mg evening): 0 n (%)
Lethargy (8 mg evening): 0 n (%)
Nervous System Disorders (8 mg evening): 3 (50.0) n (%)
Paraesthesia (8 mg evening): 1 (16.7) n (%)
Paraesthesia oral (8 mg evening): 0 n (%)
Paraesthesia tongue (8 mg evening): 0 n (%)
Psychiatric Disorders (8 mg evening): 4 n (%)
Racing thoughts (8 mg evening): 1 (16.7) n (%)
Relaxed (8 mg evening): 0 n (%)
Sensory disturbance (8 mg evening): 0 n (%)
Vision blurred (8 mg evening): 1 (16.7) n (%)
Visual disturbance (8 mg evening): 0 n (%)
Vivid dreams (8 mg evening): 1 (16.7) n (%)

Source: patent publication US11311522B1 (Cavion, Inc., priority 2018, dated 2022)
